# Earlier results in patent publication EP0426167A2, “Antitumor substance, process for preparing the same, and pharmaceutical composition containing the same” (MEIJI SEIKA KAISHA LTD., priority 1989, dated 1991).
# Columns and labels:
# P388 tumor cells [1] = conditions: result in words; cited from earlier work
# [2] = mouse, i.p.; cited from earlier work
# P388 tumor cells [3] = conditions: result in words; cited from earlier work; remark: listed apart in the source
structure (smiles),measurement,setting,value
Cc1cc2c(c3oc(C4(C)OC4C4OC4C)cc(=O)c13)C(=O)c1c(ccc(C3CC(C)(N(C)C)C(O)C(C)O3)c1O)C2=O (stereo not drawn) [SF2587 substance],therapeutic effects in mice transplanted with P388 tumor cells,P388 tumor cells [1],"excellent therapeutic, effects"
same,LD₅₀,[2],0.5 to 1 mg/kg
same,inhibitory activity on P388 tumor cells,P388 tumor cells [3],considerable inhibitory activity
